Data reported in ChEMBL document CHEMBL3817831, “Ionophoric polyphenols selectively bind Cu(2+), display potent antioxidant and anti-amyloidogenic properties, and are non-toxic toward Tetrahymena thermophila” (Bioorg Med Chem, 2016).
The source made the active and inactive calls. The rule behind the calls is not given here.

How the values were obtained:
[1] = Toxicity in Tetrahymena thermophila assessed as reduction in cell viability after 48 hrs by MTT assay; type: organism-based; conditions: Tetrahymena thermophila cells, read-out: LD50
[2] = Inhibition of preformed Cu2+-induced amyloid beta (1 to 40) fibril aggregation assessed as remaining fibril aggregates at 100 uM after 4 days at pH 6.60 by thioflavin-T fluorescence assay
[3] = Binding affinity to Cu2+ using CuCl2 at 20 uM after 5 mins by spectrophotometric titration assay
[4] = Inhibition of preformed Cu2+-induced amyloid beta (1 to 40) fibril aggregation assessed as remaining fibril aggregates at 100 uM after 12 days at pH 6.60 by thioflavin-T fluorescence assay
[5] = molecular target: Amyloid-beta precursor protein (Homo sapiens) (UniProt P05067); assay: Induction of preformed self-induced amyloid beta (1 to 40) (unknown origin) fibril aggregation at 100 uM after 4 days by turbidity assay
[6] = Inhibition of preformed Cu2+-induced amyloid beta (1 to 40) fibril aggregation at 100 uM after 4 to 12 days by turbidity assay relative to control
[7] = Inhibition of Cu2+-amyloid beta (1 to 40) catalyzed generation of hydroxyl radical assessed as rate of radical formation per min at 2 equiv preincubated for 1 hr followed by CCA addition measured over 60 mins by CCA based fluorescence assay (reference value: 13 +/- 0.2 a.u.)
[8] = molecular target: Amyloid-beta precursor protein (Homo sapiens) (UniProt P05067); assay: Inhibition of self-induced amyloid beta (1 to 40) (unknown origin) fibril aggregation assessed as remaining fibril aggregates at 100 uM after 3 days at pH 6.60 by thioflavin-T fluorescence assay
[9] = Inhibition of Cu2+-induced amyloid beta (1 to 40) fibril aggregation at 100 uM preincubated for 5 mins followed by amyloid beta (1 to 40) addition measured after 18 days by turbidity assay
[10] = Binding affinity to Mg2+ using MgSO4 at 20 uM after 5 mins by spectrophotometry
[11] = molecular target: Amyloid-beta precursor protein (Homo sapiens) (UniProt P05067); assay: Inhibition of self-induced amyloid beta (1 to 40) (unknown origin) fibril aggregation assessed as remaining fibril aggregates at 100 uM after 7 days at pH 6.60 by thioflavin-T fluorescence assay
[12] = molecular target: Amyloid-beta precursor protein (Homo sapiens) (UniProt P05067); assay: Induction of self-induced amyloid beta (1 to 40) (unknown origin) fibril aggregation at 100 uM after 3 days by turbidity assay
[13] = molecular target: Amyloid-beta precursor protein (Homo sapiens) (UniProt P05067); assay: Binding affinity to amyloid beta (1 to 40) (unknown origin) by tyrosine fluorimetric titration assay
[14] = molecular target: Amyloid-beta precursor protein (Homo sapiens) (UniProt P05067); assay: Inhibition of preformed self-induced amyloid beta (1 to 40) (unknown origin) fibril aggregation at 100 uM after 12 days by turbidity assay relative to control
[15] = molecular target: Amyloid-beta precursor protein (Homo sapiens) (UniProt P05067); assay: Inhibition of preformed self-induced amyloid beta (1 to 40) (unknown origin) fibril aggregation assessed as remaining fibril aggregates at 100 uM after 4 days at pH 6.60 by thioflavin-T fluorescence assay
[16] = Ratio of ascorbic acid IC50 to compound IC50 for DPPH free radical scavenging activity
[17] = Binding affinity to Mn2+ using MnCl2 at 20 uM after 5 mins by spectrophotometry
[18] = Antioxidant activity assessed as DPPH free radical scavenging activity after 30 mins by spectrophotometry; type: physicochemical
[19] = Antioxidant activity assessed as AAPH radical scavenging activity preincubated for 30 mins followed by AAPH addition measured after 60 mins by ORAC assay; type: physicochemical
[20] = Inhibition of Cu2+-induced amyloid beta (1 to 40) fibril aggregation assessed as remaining fibril aggregates at 100 uM preincubated for 5 mins followed by amyloid beta (1 to 40) addition measured after 7 days at pH 6.60 by thioflavin-T fluorescence assay
[21] = Binding affinity to Cu2+ using CuCl2 after 5 mins by spectrophotometry
[22] = Inhibition of Cu2+-induced amyloid beta (1 to 40) fibril aggregation assessed as remaining fibril aggregates at 100 uM preincubated for 5 mins followed by amyloid beta (1 to 40) addition measured after 3 days at pH 6.60 by thioflavin-T fluorescence assay
[23] = Binding affinity to Fe2+ using FeCl2 at 20 uM after 5 mins by spectrophotometry
[24] = Ratio of resveratrol IC50 to compound IC50 for AAPH radical scavenging activity
[25] = molecular target: Amyloid-beta precursor protein (Homo sapiens) (UniProt P05067); assay: Inhibition of self-induced amyloid beta (1 to 40) (unknown origin) fibril aggregation at 100 uM after 7 to 18 days by turbidity assay
[26] = Induction of Cu2+-induced amyloid beta (1 to 40) fibril aggregation at 100 uM preincubated for 5 mins followed by amyloid beta (1 to 40) addition measured after 3 to 7 days by turbidity assay
[27] = Binding affinity to Ca2+ using CaCl2 at 20 uM after 5 mins by spectrophotometry
[28] = Inhibition of Cu2+-amyloid beta (1 to 40) catalyzed generation of hydroxyl radical assessed as 7-hrdroxy-CCA formation at 2 equiv preincubated for 1 hr followed by CCA addition measured over 60 mins by fluorescence assay
[29] = Inhibition of Cu2+-induced amyloid beta (1 to 40) aggregation at 100 uM preincubated for 5 mins followed by amyloid beta (1 to 40) addition measured after 18 days at pH 6.60 by thioflavin-T fluorescence assay
[30] = Ratio of resveratrol IC50 to compound IC50 for DPPH free radical scavenging activity
[31] = molecular target: Amyloid-beta precursor protein (Homo sapiens) (UniProt P05067); assay: Inhibition of preformed self-induced amyloid beta (1 to 40) (unknown origin) fibril aggregation assessed as remaining fibril aggregates at 100 uM after 12 days at pH 6.60 by thioflavin-T fluorescence assay
[32] = Binding affinity to Zn2+ using ZnCl2 at 20 uM after 5 mins by spectrophotometry
[33] = Induction of preformed Cu2+-induced amyloid beta (1 to 40) fibril aggregation at 100 uM after 4 to 12 days by turbidity assay relative to control

Sequence of Amyloid-beta precursor protein (Homo sapiens) (P05067 whole entry): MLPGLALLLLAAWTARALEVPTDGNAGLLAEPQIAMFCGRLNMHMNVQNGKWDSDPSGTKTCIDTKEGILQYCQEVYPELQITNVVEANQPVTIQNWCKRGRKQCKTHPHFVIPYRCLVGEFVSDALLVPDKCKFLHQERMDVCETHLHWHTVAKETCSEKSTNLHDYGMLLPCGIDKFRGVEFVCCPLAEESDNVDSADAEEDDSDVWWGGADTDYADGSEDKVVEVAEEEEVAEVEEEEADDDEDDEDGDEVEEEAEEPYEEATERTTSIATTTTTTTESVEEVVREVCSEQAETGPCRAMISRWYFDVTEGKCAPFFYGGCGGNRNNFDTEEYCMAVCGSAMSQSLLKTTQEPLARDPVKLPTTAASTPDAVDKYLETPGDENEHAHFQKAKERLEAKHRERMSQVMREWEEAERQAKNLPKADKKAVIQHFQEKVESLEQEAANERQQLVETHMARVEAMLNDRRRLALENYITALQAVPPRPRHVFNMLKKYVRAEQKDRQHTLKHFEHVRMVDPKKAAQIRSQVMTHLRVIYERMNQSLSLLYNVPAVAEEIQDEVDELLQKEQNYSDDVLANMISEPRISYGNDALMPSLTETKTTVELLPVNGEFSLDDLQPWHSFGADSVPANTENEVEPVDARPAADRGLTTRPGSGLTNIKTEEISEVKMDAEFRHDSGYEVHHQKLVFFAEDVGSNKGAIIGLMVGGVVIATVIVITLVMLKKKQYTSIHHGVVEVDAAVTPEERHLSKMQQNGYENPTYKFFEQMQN

SMILES	LC50 at 48 h [1]	Activity [2]	Activity [4]	Activity [7]	Activity [8]	Activity [10]	Activity [11]	Activity [12]	Ka [13]	Activity [15]	Activity [17]	IC50 [18]	IC50 [19]	Activity [20]	logKa [21]	Activity [22]	Activity [23]	Activity [27]	inhibition [28]	Activity [31]	further results
Oc1cccc(CNc2ccccc2O)c1	180 µM	144%	117%	5.4 a.u.	8.2%	inactive	6.65%	Active	1.55 ×10⁵ /M	11.7%	inactive	5.87 µM	1.24 µM	17.2%	13.1	45%	inactive	inactive	51.1%	20.3%	Activity [3]: Active; Activity [5]: Active; inhibition [6]: Active; inhibition [9]: Active; inhibition [14]: 46%; Ratio IC50 [16]: 2; Ratio IC50 [24]: 1.4; inhibition [25]: Active; Activity [26]: 47%; inhibition [29]: Active; Ratio IC50 [30]: 3; Activity [32]: inactive
Oc1ccc(CNc2ccccc2O)cc1O	354 µM	76.5%	69.7%	4 a.u.	9.17%	inactive	7.49%	Active	3.55 ×10⁵ /M	12.8%	inactive	3.05 µM	0.61 µM	12.1%	12.6	19.5%	inactive	inactive	59.9%	9.28%	Activity [3]: Active; Activity [5]: Active; inhibition [9]: Active; inhibition [14]: Active; Ratio IC50 [16]: 2; Ratio IC50 [24]: 2.8; inhibition [25]: Active; Activity [26]: 47%; inhibition [29]: Active; Ratio IC50 [30]: 5.8; Activity [33]: Active; Activity [32]: inactive
Oc1ccc(/C=C/c2cc(O)cc(O)c2)cc1 [RESVERATROL]	274 µM	239%	144%	11.2 a.u.	7.48%	inactive	4.25%	Active	1.65 ×10⁵ /M	100%	inactive	17.8 µM	1.7 µM	16.1%	6.7	25.9%	Active	inactive	9%	24.1%	inhibition [6]: inactive; Activity [32]: inactive
